Data from ChEMBL document CHEMBL3885861, “Open TG-GATES”.

Organism: Rattus norvegicus
Experiment: Open TG-GATES - Regimen: Single
Assay type: toxicity, organism-based, Sprague-Dawley
Parameters: regimen Single, gender Male, age 6 weeks
Conditions: in vivo, po, route gavage; for KIDNEY_L / KIDNEY_R / KIDNEY_TOTAL: tissue Kidney; for LIVER: tissue Liver; for ALT / AST / BUN / CRE / DBIL / GLC / IP / K / PL / RALB / TBIL / TC / TG / TP / gamma-GTP / ALP: tissue Plasma
[1] = 0 mg/kg, 3 h, tissue Blood, dose level Control
[2] = 0 mg/kg, 3 h, dose level Control
[3] = 0 mg/kg, 6 h, tissue Blood, dose level Control
[4] = 0 mg/kg, 6 h, dose level Control
[5] = 0 mg/kg, 9 h, tissue Blood, dose level Control
[6] = 0 mg/kg, 9 h, dose level Control
[7] = 0 mg/kg, 24 h, tissue Blood, dose level Control
[8] = 0 mg/kg, 24 h, dose level Control
[9] = 10 mg/kg, 3 h, tissue Blood, dose level Low
[10] = 10 mg/kg, 6 h, tissue Blood, dose level Low
[11] = 10 mg/kg, 9 h, tissue Blood, dose level Low
[12] = 10 mg/kg, 24 h, tissue Blood, dose level Low

SMILES: CC(C)OC(=O)C(C)(C)Oc1ccc(C(=O)c2ccc(Cl)cc2)cc1 [FENOFIBRATE]
- Bas [1]: 0.4%
- Eos [1]: 0.8%
- Fbg [1]: 289.4 mg/dL
- Ht [1]: 39.8%
- MCHC [1]: 32.5%
- Mono [1]: 4%
- RBC [1]: 616.8 x10_4/ul
- Ret [1]: 9%
- KIDNEY_L [2]: 0.8 g
- KIDNEY_R [2]: 0.8 g
- KIDNEY_TOTAL [2]: 1.5 g
- LIVER [2]: 7.9 g
- ALT [2]: 48.4 IU/L
- AST [2]: 83 IU/L
- BUN [2]: 9 mg/dL
- CRE [2]: 0.2 mg/dL
- DBIL [2]: 0.006 mg/dL
- GLC [2]: 182.6 mg/dL
- IP [2]: 9.5 mg/dL
- K [2]: 4.3 meq/L
- PL [2]: 140.8 mg/dL
- RALB [2]: 2.4 g/dL
- TBIL [2]: 0.048 mg/dL
- TC [2]: 77 mg/dL
- TG [2]: 41.2 mg/dL
- TP [2]: 5.2 g/dL
- gamma-GTP [2]: 1.4 IU/L
- Bas [3]: 0.4%
- Eos [3]: 0.8%
- Fbg [3]: 268.2 mg/dL
- Ht [3]: 40.1%
- MCHC [3]: 32.4%
- Mono [3]: 3%
- RBC [3]: 599.2 x10_4/ul
- Ret [3]: 9.6%
- KIDNEY_L [4]: 0.8 g
- KIDNEY_R [4]: 0.8 g
- KIDNEY_TOTAL [4]: 1.5 g
- LIVER [4]: 7.2 g
- ALP [4]: 1534.8 IU/L
- ALT [4]: 41.8 IU/L
- AST [4]: 81.8 IU/L
- BUN [4]: 9.6 mg/dL
- CRE [4]: 0.2 mg/dL
- DBIL [4]: 0.008 mg/dL
- GLC [4]: 173.8 mg/dL
- IP [4]: 9.7 mg/dL
- K [4]: 4.1 meq/L
- PL [4]: 142.6 mg/dL
- RALB [4]: 2.5 g/dL
- TBIL [4]: 0.056 mg/dL
- TC [4]: 82.4 mg/dL
- TG [4]: 44.6 mg/dL
- TP [4]: 5.4 g/dL
- gamma-GTP [4]: 1 IU/L
- Bas [5]: 0%
- Eos [5]: 1%
- Fbg [5]: 292.6 mg/dL
- Ht [5]: 39.3%
- MCHC [5]: 32.3%
- Mono [5]: 2.4%
- RBC [5]: 584.2 x10_4/ul
- Ret [5]: 9.6%
- KIDNEY_L [6]: 0.8 g
- KIDNEY_R [6]: 0.8 g
- KIDNEY_TOTAL [6]: 1.5 g
- LIVER [6]: 6.9 g
- ALP [6]: 1454.2 IU/L
- ALT [6]: 38.6 IU/L
- AST [6]: 75.8 IU/L
- BUN [6]: 8.4 mg/dL
- CRE [6]: 0.2 mg/dL
- DBIL [6]: 0.008 mg/dL
- GLC [6]: 178.8 mg/dL
- IP [6]: 9.5 mg/dL
- K [6]: 4 meq/L
- PL [6]: 145.8 mg/dL
- RALB [6]: 2.4 g/dL
- TBIL [6]: 0.058 mg/dL
- TC [6]: 83.2 mg/dL
- TG [6]: 38.6 mg/dL
- TP [6]: 5.2 g/dL
- gamma-GTP [6]: 1 IU/L
- Bas [7]: 0.2%
- Eos [7]: 1%
- Fbg [7]: 281.4 mg/dL
- Ht [7]: 39.1%
- MCHC [7]: 32.7%
- Mono [7]: 3%
- RBC [7]: 590.8 x10_4/ul
- Ret [7]: 9.3%
- KIDNEY_L [8]: 0.9 g
- KIDNEY_R [8]: 0.8 g
- KIDNEY_TOTAL [8]: 1.7 g
- LIVER [8]: 9.1 g
- ALT [8]: 50.4 IU/L
- AST [8]: 77.6 IU/L
- CRE [8]: 0.2 mg/dL
- DBIL [8]: 0.012 mg/dL
- GLC [8]: 186.2 mg/dL
- IP [8]: 8.5 mg/dL
- K [8]: 4.4 meq/L
- PL [8]: 153.6 mg/dL
- RALB [8]: 2.6 g/dL
- TBIL [8]: 0.04 mg/dL
- TC [8]: 82.8 mg/dL
- TG [8]: 65 mg/dL
- TP [8]: 5.6 g/dL
- gamma-GTP [8]: 0.8 IU/L
- Bas [9]: 0.2%
- Eos [9]: 0.6%
- Fbg [9]: 280.8 mg/dL
- Ht [9]: 40.3%
- MCHC [9]: 32.3%
- Mono [9]: 3.6%
- RBC [9]: 603 x10_4/ul
- Ret [9]: 10.2%
- KIDNEY_L (10 mg/kg, 3 h, dose level Low): 0.8 g
- KIDNEY_R (10 mg/kg, 3 h, dose level Low): 0.8 g
- KIDNEY_TOTAL (10 mg/kg, 3 h, dose level Low): 1.6 g
- LIVER (10 mg/kg, 3 h, dose level Low): 7.8 g
- ALP (10 mg/kg, 3 h, dose level Low): 1472.8 IU/L
- ALT (10 mg/kg, 3 h, dose level Low): 49.4 IU/L
- AST (10 mg/kg, 3 h, dose level Low): 83.6 IU/L
- BUN (10 mg/kg, 3 h, dose level Low): 9.8 mg/dL
- CRE (10 mg/kg, 3 h, dose level Low): 0.2 mg/dL
- DBIL (10 mg/kg, 3 h, dose level Low): 0.01 mg/dL
- GLC (10 mg/kg, 3 h, dose level Low): 178.4 mg/dL
- IP (10 mg/kg, 3 h, dose level Low): 10 mg/dL
- K (10 mg/kg, 3 h, dose level Low): 4.2 meq/L
- PL (10 mg/kg, 3 h, dose level Low): 140.8 mg/dL
- RALB (10 mg/kg, 3 h, dose level Low): 2.4 g/dL
- TBIL (10 mg/kg, 3 h, dose level Low): 0.058 mg/dL
- TC (10 mg/kg, 3 h, dose level Low): 80.4 mg/dL
- TG (10 mg/kg, 3 h, dose level Low): 43 mg/dL
- TP (10 mg/kg, 3 h, dose level Low): 5.2 g/dL
- gamma-GTP (10 mg/kg, 3 h, dose level Low): 1.4 IU/L
- Bas [10]: 0%
- Eos [10]: 0.8%
- Fbg [10]: 283 mg/dL
- Ht [10]: 39.7%
- Lym [10]: 69.4%
- MCHC [10]: 32%
- Mono [10]: 2.6%
- RBC [10]: 572.6 x10_4/ul
- Ret [10]: 11.1%
- KIDNEY_L (10 mg/kg, 6 h, dose level Low): 0.8 g
- KIDNEY_R (10 mg/kg, 6 h, dose level Low): 0.8 g
- KIDNEY_TOTAL (10 mg/kg, 6 h, dose level Low): 1.6 g
- LIVER (10 mg/kg, 6 h, dose level Low): 7.8 g
- ALP (10 mg/kg, 6 h, dose level Low): 1504.8 IU/L
- ALT (10 mg/kg, 6 h, dose level Low): 43.4 IU/L
- AST (10 mg/kg, 6 h, dose level Low): 77.2 IU/L
- BUN (10 mg/kg, 6 h, dose level Low): 8.8 mg/dL
- CRE (10 mg/kg, 6 h, dose level Low): 0.2 mg/dL
- DBIL (10 mg/kg, 6 h, dose level Low): 0.01 mg/dL
- GLC (10 mg/kg, 6 h, dose level Low): 180.2 mg/dL
- IP (10 mg/kg, 6 h, dose level Low): 10.2 mg/dL
- K (10 mg/kg, 6 h, dose level Low): 4.2 meq/L
- PL (10 mg/kg, 6 h, dose level Low): 128 mg/dL
- RALB (10 mg/kg, 6 h, dose level Low): 2.5 g/dL
- TBIL (10 mg/kg, 6 h, dose level Low): 0.056 mg/dL
- TC (10 mg/kg, 6 h, dose level Low): 71.6 mg/dL
- TG (10 mg/kg, 6 h, dose level Low): 36.8 mg/dL
- TP (10 mg/kg, 6 h, dose level Low): 5.4 g/dL
- gamma-GTP (10 mg/kg, 6 h, dose level Low): 1.4 IU/L
- Bas [11]: 0%
- Eos [11]: 1%
- Fbg [11]: 283 mg/dL
- Ht [11]: 39.6%
- MCHC [11]: 32.4%
- Mono [11]: 1.4%
- RBC [11]: 608.4 x10_4/ul
- Ret [11]: 9.5%
- KIDNEY_L (10 mg/kg, 9 h, dose level Low): 0.8 g
- KIDNEY_R (10 mg/kg, 9 h, dose level Low): 0.8 g
- KIDNEY_TOTAL (10 mg/kg, 9 h, dose level Low): 1.6 g
- LIVER (10 mg/kg, 9 h, dose level Low): 7 g
- ALP (10 mg/kg, 9 h, dose level Low): 1360.4 IU/L
- ALT (10 mg/kg, 9 h, dose level Low): 42.4 IU/L
- AST (10 mg/kg, 9 h, dose level Low): 77.4 IU/L
- BUN (10 mg/kg, 9 h, dose level Low): 7.4 mg/dL
- CRE (10 mg/kg, 9 h, dose level Low): 0.1 mg/dL
- DBIL (10 mg/kg, 9 h, dose level Low): 0.01 mg/dL
- GLC (10 mg/kg, 9 h, dose level Low): 175.2 mg/dL
- IP (10 mg/kg, 9 h, dose level Low): 9.8 mg/dL
- K (10 mg/kg, 9 h, dose level Low): 3.9 meq/L
- PL (10 mg/kg, 9 h, dose level Low): 124 mg/dL
- RALB (10 mg/kg, 9 h, dose level Low): 2.4 g/dL
- TBIL (10 mg/kg, 9 h, dose level Low): 0.054 mg/dL
- TC (10 mg/kg, 9 h, dose level Low): 70.8 mg/dL
- TG (10 mg/kg, 9 h, dose level Low): 31.2 mg/dL
- TP (10 mg/kg, 9 h, dose level Low): 5.2 g/dL
- gamma-GTP (10 mg/kg, 9 h, dose level Low): 0.8 IU/L
- Bas [12]: 0%
- Eos [12]: 1%
- Fbg [12]: 270 mg/dL
- Ht [12]: 38.6%
- MCHC [12]: 32.4%
- Mono [12]: 3.8%
- RBC [12]: 590.4 x10_4/ul
- Ret [12]: 8.6%
- KIDNEY_L (10 mg/kg, 24 h, dose level Low): 0.8 g
- KIDNEY_R (10 mg/kg, 24 h, dose level Low): 0.8 g
- KIDNEY_TOTAL (10 mg/kg, 24 h, dose level Low): 1.6 g
- LIVER (10 mg/kg, 24 h, dose level Low): 9.2 g
- ALP (10 mg/kg, 24 h, dose level Low): 1838.8 IU/L
- ALT (10 mg/kg, 24 h, dose level Low): 49.2 IU/L
- AST (10 mg/kg, 24 h, dose level Low): 76.8 IU/L
- BUN (10 mg/kg, 24 h, dose level Low): 14.2 mg/dL
- CRE (10 mg/kg, 24 h, dose level Low): 0.2 mg/dL
- DBIL (10 mg/kg, 24 h, dose level Low): 0.012 mg/dL
- GLC (10 mg/kg, 24 h, dose level Low): 179.6 mg/dL
- IP (10 mg/kg, 24 h, dose level Low): 8.6 mg/dL
- K (10 mg/kg, 24 h, dose level Low): 4.3 meq/L
- PL (10 mg/kg, 24 h, dose level Low): 133.2 mg/dL
- RALB (10 mg/kg, 24 h, dose level Low): 2.6 g/dL
- TBIL (10 mg/kg, 24 h, dose level Low): 0.04 mg/dL
- TC (10 mg/kg, 24 h, dose level Low): 68.8 mg/dL
- TG (10 mg/kg, 24 h, dose level Low): 54 mg/dL
- TP (10 mg/kg, 24 h, dose level Low): 5.4 g/dL
- gamma-GTP (10 mg/kg, 24 h, dose level Low): 1.2 IU/L
